Source: patent US6538022B1, “Compounds for deactivating phospholamban function on Ca-ATPase (phopholamban inhibitors)” (Orion Corporation, priority 1997, dated 2003)
Bridges are numbered along the chain shown (N, C = ends). Where no end group is shown, it is not given here.

Assays:
[1] = test system: guinea-pig heart; test: Left ventricular systolic pressure in isolated Langendorff-perfused heart; settings: Cavia porcellus; for Emax at 30 µM / Emax at 10 µM: read-out: maximum effect (% change from baseline) on left ventricular systolic pressure; for EC50: concentration range 0.3-30 μM
Excerpt: Experiment 2. The effects on the left ventricular pressure derivatives
Guinea-pigs of either sex weighing 300-400 g were used in the study. After the guinea-pig was sacrificed by a blow on the skull and decapitated the heart was rapidly excised. The heart was then rinsed in cold oxygenated perfusion buffer. A cannula was inserted into the aorta and secured with a ligature. Retrograde perfusion began as soon as the heart was placed in a thermostatically controlled moist chamber of the Langendorff apparatus. Modified Tyrode solution (37° C.), equilibrated in a thermostatically controlled bulb oxygenator with carbogen (95% O2 and 5% CO2) was used as a perfusion buffer. The composition of the Tyrode solution was (in mM): NaCl 135; MgCl2×6H2O 1; KCl 5; CaCl2×2H2O 2; NaHCO3 15; Na2HPO4×2H2O 1; glucose 10; pH 7.3-7.4. The experiments were carried out under constant pressure condition (50 mmHg). After a short prestabilization (10 min) a latex balloon (size 4) was carefully placed into the left ventricle through the left pulmonary vein and the left atrium. The latex balloon was attached to a stainless-steel cannula coupled with a pressure transducer. The latex balloon, the cannula and the chamber of the pressure transducer were filled with ethylene glycol/water (1:1) mixture avoiding any air-bubble. The isovolumetric left ventricular pressure was recorded through the pressure transducer. At the beginning of the experiment, the volume of the balloon was adjusted to obtain a diastolic pressure of approximately 5 mmHg. Before starting the experiment, the heart was allowed to stabilise further for 30-50 min with vehicle (0.1% DMSO) in the perfusion buffer.
After 15 min baseline recording various concentrations of the test compound were added to the perfusion buffer at 15 min intervals. The concentration range of 0.3-30 μM was tested. The vehicle concentration (0.1% DMSO) was kept constant throughout the experiment.

[2] = test system: phospholamban; test: Ca2+ uptake into SR vesicles prepared from cardiac tissue (fluo-3); type: biochemical, guinea pig; settings: 0.1 μM free calcium
Excerpt: (§1) Experiment 1. Effect on calcium uptake into the SR vesicles prepared from cardiac and fast skeletal muscle
(§2) Since phospholamban represses both the rates of relaxation and contraction in the mammalian heart through its inhibitory effects on the cardiac SR Ca^2+-ATPase, a compound relieving these effects is potentially useful in the treatment of heart failure.
(§3) Guinea pigs (10-12) were decapited. Their hearts or the psoas muscles were excised, washed in ice-cold 0.9% NaCl and cut into pieces in a buffer containing 20 mM Tris-maleate, 0.3 M sucrose, pH 7.0. Thereafter tissue pieces were homogenized with Polytron and further with Potter (10 strokes). The homogenate was centrifugated at 1000 g for 15 min at 4° C. The supernatant was collected and the pellet was resuspended into 5 ml of the buffer (20 mM Tris-maleate, 0.3 M sucrose, pH 7.0) and recentrifugated at 1000 g for 10 min at 4° C. The obtained supernatant was combined with the earlier collected supernatant and centrifugated once again at 10000 g for 20 min at 4° C. The final supernatant was filtered into a bottle equipped with a magnetic stirrer. KCl was added to the filtered supernatant to achieve the final concentration of 0.6 M (at 4° C.). The obtained solution was centrifugated at 100 000 g for 60 min at 4° C. The pellet was suspended in 5 ml of the buffer containing 20 mM Tris-maleate, 0.3 M sucrose, pH 7.0 and centrifugated at 100 000 g for 60 min at 4° C. The obtained pellet was suspended in 5 ml of buffer containing 20 mM Tris-maleate, 0.3 M sucrose, 0.1 M KCl, pH 7.0 and stored at −80° C. until use. The protein concentration was also measured in order to standardise the separately prepared vesicle preparations.
(§4) In the calcium uptake assay, the fluorescent indicator, fluo-3 was used to detect the decrease of the extravesicular Ca^2+-concentration, when the SR Ca^2+ATPase was transferring Ca^2+ from the extravesicular space into the SR-vesicles.
(§5) The SR-vesicles obtained above (50 μg protein/ml) were pre-incubated with or without the test compound at 37° C. for 5 min in the assay buffer containing 40 mM imidazole, 95 mM KCl, 5 mM NaN3, 5 mM MgCl2, 0.5 mM EGTA, 5 mM potassium oxalate, 2 μM ruthenium red, 5 μM fluo-3, pH 7.0. The free calcium was adjusted to 0.1 μM or to 0.04 μM by CaCl2. The reaction was initiated by adding ATP (5 mM). The final reaction volume was 1.5 ml. The fluorescence of reaction mixture was measured for 3 min by using the excitation and emission wavelengths of 510 nm and 530 nm, respectively.

[3] = test system: SR Ca^2+-ATPase; test: Ca2+ uptake into SR vesicles prepared from fast skeletal muscle (psoas m.), which lack phospholamban (fluo-3); type: biochemical, guinea pig; settings: 0.04 μM free calcium
Excerpt: as §1, §2, §3, §4, §5

[4] = target: T1, PLB (Homo sapiens, UniProt P26678); test: Peptide screen for binding to PLB
T1 sequence (P26678 1-52): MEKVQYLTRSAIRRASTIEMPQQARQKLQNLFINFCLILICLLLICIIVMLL
Excerpt: In order to find a lead molecule which would interact with PLB a series of peptides were screened. […] It was concluded that the cyclic peptide of formula (pI) binds to unphosphorylated PLB and prevents the inhibition exerted by PLB on SERCA—2 thus acting as a PLB deactivator. The cyclic peptide (pI) has the structure: [drawing 1]

Molecule	EC50 [1] [µM]	Emax at 30 µM [1] [%]	The stimulation (%) of Ca^2+ uptake, A (ventricular myocardium vesicles) ([2]; 100 μM compound) [%]	Emax at 10 µM [1] [%]	also measured
O=c1oc2cc(OCc3nn[nH]n3)cc(OCc3nn[nH]n3)c2c2c1C(c1ccccc1)CCC2 (centres unmarked) [Example 2c, 7,8,9,10-Tetrahydro-1,3-bis[(1H-tetrazol-5-yl)methoxy]-7-phenyl-6H-dibenzo[b,d]pyran-6-one]	–	–	26	–	The stimulation (%) of Ca^2+ uptake, B (fast skeletal muscle vesicles) ([3]; 100 μM compound): −1%
Cc1c(Cc2ccccc2)c(=O)oc2cc(OCc3noc(=O)[nH]3)cc(OCc3noc(=O)[nH]3)c12 [Example 3c, 3-Benzyl-5,7-bis[(2,5-dihydro-5-oxo-4H-1,2,4-oxadiazol-3-yl)-methoxy]-4-methyl-2H-1-benzopyran-2-one]	4	–	–	63	The stimulation (%) of Ca^2+ uptake, A (ventricular myocardium vesicles) ([2]; 20 μM compound): 51%; The stimulation (%) of Ca^2+ uptake, B (fast skeletal muscle vesicles) ([3]; 20 μM compound): 0%
O=c1cc(-c2ccccc2)c2c(OCc3nn[nH]n3)cc(OCc3nn[nH]n3)cc2o1 [Example 5c, 5,7-Bis[(1H-tetrazol-5-yl)methoxy]-4-phenyl-2H-1-benzopyran-2-one]	–	14	–	–	–
Cc1c(Cc2ccccc2)c(=O)oc2cc(OC(C)c3nn[nH]n3)cc(OC(C)c3nn[nH]n3)c12 (centres unmarked) [Example 11b, 3-Benzyl-5,7-bis[1-(1H-tetrazol-5-yl)ethoxy]4-methyl-2 H-1-benzopyran-2-one]	–	–	28	–	–
Cc1c(Cc2ccccc2)c(=O)n(Cc2ccccc2)c2cc(OCC(=O)O)cc(OCC(=O)O)c12 [Example 12, 5,7-Bis(carboxymethoxy)-1,3-dibenzyl-4-methyl-2(1H)-quinolinone]	–	–	32	22	–
Cc1c(Cc2ccc(Cl)cc2)c(=O)oc2cc(OCc3nn[nH]n3)cc(OCc3nn[nH]n3)c12 [Example 14c, 5,7-Bis[(1H-tetrazol-5-yl)methoxy]-3-(4-chlorobenzyl)-4-methyl-2H-1-benzopyran-2-one]	–	–	–	25	The stimulation (%) of Ca^2+ uptake, A (ventricular myocardium vesicles) ([2]; 10 μM compound): 18%
Cc1c(C2CCCC2)c(=O)oc2cc(OCc3nn[nH]n3)cc(OCc3nn[nH]n3)c12 [Example 16c, 5,7-Bis[(1H-tetrazol-5-yl)methoxy]-3-cyclopentyl-4-methyl-2H-1-benzopyran-2-one]	10	57	–	–	–
Cc1c(Cc2ccccc2)c(=O)n(Cc2ccccc2)c2cc(OCC(N)=O)cc(OCC(N)=O)c12 [Example 21, 5,7-Bis(aminocarbonylmethoxy)-1,3-dibenzyl-4-methyl-2(1H)-quinolinone]	–	–	11	–	–
Cc1c(Cc2ccccc2)c(=O)n(Cc2ccccc2)c2cc(OCC(=O)NO)cc(OCC(=O)NO)c12 [Example 23, 5,7-Bis(hydroxyaminocarbonylmethoxy)-1,3-dibenzyl-4-methyl-2(1H)-quinolinone]	–	–	–	–	The stimulation (%) of Ca^2+ uptake, A (ventricular myocardium vesicles) ([2]; 5 μM compound): 20%
cP226: cyclic peptide of formula (pI) wherein X is Tyr; linear CYWELEWLPCA cyclized by intramolecular disulphide bridge; PLB deactivator (disulfide 1-10 (inferred))	–	–	–	–	binding to PLB [4]: binds to the ligand binding site of phospholamban

The next lines start with results.

EC50 [1] [µM]	Molecule	Emax at 30 µM [1] [%]	The stimulation (%) of Ca^2+ uptake, A (ventricular myocardium vesicles) ([2]; 100 μM compound) [%]	Emax at 10 µM [1] [%]	also measured
9	Cc1c(Cc2ccccc2)c(=O)oc2cc(OCc3nn[nH]n3)cc(OCc3nn[nH]n3)c12 [Example 1c, 3-Benzyl-5,7-bis[(1H-tetrazol-5-yl)methoxy]-4-methyl-2H-1-benzopyran-2-one]	52	–	–	–
0.5	O=c1oc2cc(OCc3nn[nH]n3)cc(OCc3nn[nH]n3)c2c2c1CC(c1ccccc1)CC2 (centres unmarked) [Example 6c, 7,8,9,10-Tetrahydro-1,3-bis[(1H-tetrazol-5-yl)methoxy]-8-phenyl-6H-dibenzo[b,d]pyran-6-one]	–	–	25	–
2.5	Cc1c(CCc2ccccc2)c(=O)oc2cc(OCc3nn[nH]n3)cc(OCc3nn[nH]n3)c12 [Example 7c, 5,7-Bis[(1H-tetrazol-5-yl)methoxy]-4-methyl-3-(2-phenylethyl)-2H-1benzopyran-2-one]	–	5	29	The stimulation (%) of Ca^2+ uptake, B (fast skeletal muscle vesicles) ([3]; 100 μM compound): −17%
2	Cc1c(Cc2ccccc2)c(=O)n(Cc2ccccc2)c2cc(OCc3nnn[nH]3)cc(OCc3nn[nH]n3)c12 [Example 8g, 5,7-Bis[(1H-tetrazol-5-yl)methoxy]-1,3-dibenzyl-4-methyl-2(1H)-quinolinone]	–	–	64	The stimulation (%) of Ca^2+ uptake, A (ventricular myocardium vesicles) ([2]; 10 μM compound): 18%; The stimulation (%) of Ca^2+ uptake, B (fast skeletal muscle vesicles) ([3]; 10 μM compound): 0%
5	Cc1c(Cc2ccccc2)c(=O)n(C)c2cc(OCc3nnn[nH]3)cc(OCc3nn[nH]n3)c12 [Example 9d, 5,7-Bis[(1H-tetrazol-5-yl)methoxy]-3-benzyl-1,4-dimethyl-2(1H)-quinolinone]	50	–	–	–
10	Cc1c(Cc2ccccc2)c(=O)n(Cc2ccc(F)cc2)c2cc(OCc3nn[nH]n3)cc(OCc3nn[nH]n3)c12 [Example 13d, 3-Benzyl-5,7-Bis[(1H-tetrazol-5-yl)methoxy]-1-(4-fluorobenzyl)-4-methyl-2(1H)-quinolinone]	48	–	–	The stimulation (%) of Ca^2+ uptake, A (ventricular myocardium vesicles) ([2]; 50 μM compound): 23%
3	Cc1c(Cc2ccc([N+](=O)[O-])cc2)c(=O)oc2cc(OCc3nn[nH]n3)cc(OCc3nn[nH]n3)c12 [Example 15c, 5,7-Bis[(1H-tetrazol-5-yl)methoxy]-3-(4-nitrobenzyl)-4-methyl-2H-1-benzopyran-2-one]	–	–	37	–
10	Cc1cc(=O)n(Cc2ccccc2)c2cc(OCc3nnn[nH]3)cc(OCc3nnn[nH]3)c12 [Example 18e, 1-Benzyl-5,7-bis-[(1H-tetrazol-5-yl)methoxy]-4-methyl-2(1H)-quinolinone]	35	13	–	–
6	Cc1c(Cc2ccccc2F)c(=O)n(Cc2ccccc2)c2cc(OCc3nnn[nH]3)cc(OCc3nnn[nH]3)c12 [Example 19e]	39	–	–	–
